Reference: PubChem BioAssay AID248 (DTP/NCI, 2004)
Values joined by “and” are separate entries in the source; they are usually repeats but may differ in a detail not shown here. Equal values may be shown once. Inconclusive results and toxic doses are left out. No stated cut-off is given here; in the data, active means T/C of 150% or more; inactive means T/C below 125%.

Test system: L1210 leukemia ip in BDF1 mice, survival T/C
Experiment: NCI In Vivo Anticancer Drug Screen. Data for tumor model L1210 Leukemia (intraperitoneal) in B6D2F1 (BDF1) mice
Details: endpoint: mean survival time, higher = longer survival
Method in brief: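 Each compound was tested against a transplantable tumor grown in mice. The endpoint was survival, with treated animals benchmarked against vehicle controls as a simple ratio.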

[1] = dose: 100.0 mg/kg/injection, schedule: Q04DX002 (ip), vehicle: Klucel (hydroxypropylcellulose) (HPC)
[2] = dose: 200.0 mg/kg/injection, schedule: Q04DX002 (ip), vehicle: Klucel (hydroxypropylcellulose) (HPC)
[3] = dose: 400.0 mg/kg/injection, schedule: Q04DX002 (ip), vehicle: Klucel (hydroxypropylcellulose) (HPC)
[4] = dose: 100.0 mg/kg/injection, schedule: Q01DX009 (ip), vehicle: saline
[5] = dose: 100.0 mg/kg/injection, schedule: Q04DX003 (ip), vehicle: saline
[6] = dose: 50.0 mg/kg/injection, schedule: Q01DX009 (ip), vehicle: saline with Tween-80
[7] = dose: 100.0 mg/kg/injection, schedule: Q01DX009 (ip), vehicle: saline with Tween-80
[8] = dose: 100.0 mg/kg/injection, schedule: Q04DX003 (ip), vehicle: saline with Tween-80
[9] = dose: 200.0 mg/kg/injection, schedule: Q01DX009 (ip), vehicle: saline with Tween-80
[10] = dose: 200.0 mg/kg/injection, schedule: Q04DX003 (ip), vehicle: saline with Tween-80
[11] = dose: 100.0 mg/kg/injection, schedule: Q01DX001 (ip), vehicle: Klucel (hydroxypropylcellulose) (HPC)
[12] = dose: 100.0 mg/kg/injection, schedule: Q01DX009 (ip), vehicle: Klucel (hydroxypropylcellulose) (HPC)
[13] = dose: 200.0 mg/kg/injection, schedule: Q01DX001 (ip), vehicle: Klucel (hydroxypropylcellulose) (HPC)
[14] = dose: 200.0 mg/kg/injection, schedule: Q01DX009 (ip), vehicle: Klucel (hydroxypropylcellulose) (HPC)
[15] = dose: 400.0 mg/kg/injection, schedule: Q01DX001 (ip), vehicle: Klucel (hydroxypropylcellulose) (HPC)
[16] = dose: 400.0 mg/kg/injection, schedule: Q01DX009 (ip), vehicle: Klucel (hydroxypropylcellulose) (HPC)
[17] = dose: 400.0 mg/kg/injection, schedule: Q01DX009 (ip), vehicle: saline with Tween-80
[18] = dose: 25.0 mg/kg/injection, schedule: Q01DX009 (ip), vehicle: saline with Tween-80
[19] = dose: 200.0 mg/kg/injection, schedule: Q01DX009 (ip), vehicle: saline
[20] = dose: 200.0 mg/kg/injection, schedule: Q04DX003 (ip), vehicle: saline
[21] = dose: 400.0 mg/kg/injection, schedule: Q01DX009 (ip), vehicle: saline
[22] = dose: 400.0 mg/kg/injection, schedule: Q04DX003 (ip), vehicle: saline
[23] = dose: 100.0 mg/kg/injection, schedule: Q01DX001 (ip), vehicle: saline
[24] = dose: 200.0 mg/kg/injection, schedule: Q01DX001 (ip), vehicle: saline
[25] = dose: 400.0 mg/kg/injection, schedule: Q01DX001 (ip), vehicle: saline
[26] = dose: 50.0 mg/kg/injection, schedule: Q01DX001 (ip), vehicle: saline

Measured: T/C

FC(F)(F)c1cccc(-n2nncc2-c2ccc(Cl)cc2)c1
inactive: [1] 96 % of control | [2] 101 % of control | [3] 96 % of control

COc1cccc(C(=O)CC(O)(C(F)(F)F)C(F)(F)F)c1
inactive: dose: 50.0 mg/kg/injection, schedule: Q04DX003 (ip), vehicle: other 100 % of control | dose: 100.0 mg/kg/injection, schedule: Q04DX003 (ip), vehicle: other 96 % of control | dose: 200.0 mg/kg/injection, schedule: Q04DX003 (ip), vehicle: other 98 % of control | dose: 400.0 mg/kg/injection, schedule: Q04DX003 (ip), vehicle: other 104 % of control

O=S1(=O)CCCCO1
inactive: dose: 25.0 mg/kg/injection, schedule: Q01DX009 (ip), vehicle: saline 97 % of control | dose: 25.0 mg/kg/injection, schedule: Q04DX003 (ip), vehicle: saline 102 % of control | dose: 50.0 mg/kg/injection, schedule: Q01DX009 (ip), vehicle: saline 101 % of control | dose: 50.0 mg/kg/injection, schedule: Q04DX003 (ip), vehicle: saline 102 % of control | [4] 89 % of control | [5] 98 % of control

O=C(O)C1(Cl)CC2C=CC1C2 (centres undefined)
inactive: dose: 50.0 mg/kg/injection, schedule: Q01DX009 (ip), vehicle: gum acacia 99 % of control | [6] 93 % of control | dose: 100.0 mg/kg/injection, schedule: Q01DX009 (ip), vehicle: gum acacia 89 % of control | [7] 96 % of control | dose: 100.0 mg/kg/injection, schedule: Q04DX003 (ip), vehicle: gum acacia 101 % of control | [8] 93 % of control | dose: 200.0 mg/kg/injection, schedule: Q01DX009 (ip), vehicle: gum acacia 92 % of control | [9] 94 % of control | dose: 200.0 mg/kg/injection, schedule: Q04DX003 (ip), vehicle: gum acacia 95 % of control | [10] 91 % of control

CCCN1CCCC(OC(=O)N(C)C)C1 (centres undefined)
inactive: [1] 86 % of control | [2] 104 % of control

C1=C\CCC2(OCCO2)C2(CC/1)OCCO2
inactive: dose: 50.0 mg/kg/injection, schedule: Q04DX003 (ip), vehicle: Klucel (hydroxypropylcellulose) (HPC) 100 % of control | [11] 111 % of control | [12] 104 % of control | dose: 100.0 mg/kg/injection, schedule: Q04DX003 (ip), vehicle: Klucel (hydroxypropylcellulose) (HPC) 100 % of control | [13] 109 % of control | [14] 98 % of control | dose: 200.0 mg/kg/injection, schedule: Q04DX003 (ip), vehicle: Klucel (hydroxypropylcellulose) (HPC) 97 % of control | [15] 105 % of control | [16] 98 % of control | dose: 400.0 mg/kg/injection, schedule: Q04DX003 (ip), vehicle: Klucel (hydroxypropylcellulose) (HPC) 95 % of control

Cc1ccc2nc(-c3ccccc3N)[nH]c2c1
inactive: [7] 97 % of control | [9] 92 % of control | [17] 92 % of control

Nc1ccc(S(=O)(=O)Nc2ccc([N+](=O)[O-])cc2)cc1
inactive: [18] 98 % of control | [6] 93 % of control | [7] 98 % of control | [9] 110 % of control | [17] 100 % of control

C/C(=C\Cl)CN1C(=O)c2ccccc2C1=O
inactive: [4] 93 % of control | [5] 97 % of control | [19] 113 % of control | [20] 101 % of control | [21] 102 % of control | [22] 105 % of control

COc1ccc(COC(=O)Nc2ccc([N+](=O)[O-])cc2OC)cc1
inactive: [12] 90 % of control | [14] 91 % of control | [16] 106 % of control

C[N+](C)(C)CCOC(=O)c1ccc(CBr)cc1
inactive: [18] 104 % of control | [6] 108 % of control | dose: 50.0 mg/kg/injection, schedule: Q04DX002 (ip), vehicle: saline 90 % of control | [7] 86 % of control | [4] 103 % of control | dose: 100.0 mg/kg/injection, schedule: Q04DX002 (ip), vehicle: saline 98 % of control

COC(=O)C1(C)CCCC2(C)c3cc(OC)c4c(c3CCC12)C(=O)CCC4 (centres undefined)
inactive: dose: 100.0 mg/kg/injection, schedule: Q01DX001 (sc), vehicle: steriod suspending solution 93 % of control | dose: 200.0 mg/kg/injection, schedule: Q01DX001 (sc), vehicle: steriod suspending solution 90 % of control | dose: 400.0 mg/kg/injection, schedule: Q01DX001 (sc), vehicle: steriod suspending solution 98 % of control

Cc1nc2ncnc(NCc3ccc(Cl)cc3Cl)c2[nH]1
inactive: [23] 97 % of control | [24] 89 % of control | [25] 108 % of control

CCCCN(CCCC)S(=O)(=O)CCl
inactive: dose: 100.0 mg/kg/injection, schedule: Q04DX002 (ip), vehicle: saline with Tween-80 116 % of control | dose: 200.0 mg/kg/injection, schedule: Q04DX002 (ip), vehicle: saline with Tween-80 108 % of control | dose: 400.0 mg/kg/injection, schedule: Q04DX002 (ip), vehicle: saline with Tween-80 105 % of control

CCCCCOCC
inactive: [23] 103 % of control | [4] 96 % of control | [24] 105 % of control | [19] 101 % of control | [25] 103 % of control | [21] 101 % of control

S=C(NCc1ccccc1)[S][Sn]([c]1ccccc1)([c]1ccccc1)[c]1ccccc1
inactive: dose: 5.0 mg/kg/injection, schedule: Q01DX001 (ip), vehicle: steriod suspending solution 101 % of control | dose: 10.0 mg/kg/injection, schedule: Q01DX001 (ip), vehicle: steriod suspending solution 103 % of control | dose: 20.0 mg/kg/injection, schedule: Q01DX001 (ip), vehicle: steriod suspending solution 93 % of control | dose: 40.0 mg/kg/injection, schedule: Q01DX001 (ip), vehicle: steriod suspending solution 113 % of control | dose: 80.0 mg/kg/injection, schedule: Q01DX001 (ip), vehicle: steriod suspending solution 104 % of control

C/C(=N/NC(=O)c1ccccc1)C(=O)c1ccccc1
inactive: [11] 101 % of control | [13] 97 % of control | [15] 98 % of control

O=C(O)CCC(NC(=O)OCc1ccccc1)C(=O)NC(Cc1ccccc1)C(=O)O (centres undefined)
inactive: [8] 102 % of control | [10] 101 % of control | dose: 400.0 mg/kg/injection, schedule: Q04DX003 (ip), vehicle: saline with Tween-80 101 % of control

COC(C)C1C([N+](C)(C)C)CS1(=O)=O (centres undefined)
inactive: dose: 75.0 mg/kg/injection, schedule: Q01DX001 (ip), vehicle: saline 97 % of control | dose: 150.0 mg/kg/injection, schedule: Q01DX001 (ip), vehicle: saline 94 % of control

CN(C)c1ccc(C(=O)O)cn1
inactive: [7] 96 % of control | [5] 100 % of control | [9] 105 % of control | [20] 100 % of control | [17] 102 % of control | [22] 100 % of control

O=C(CCCC(=O)N/N=C/c1ccc([N+](=O)[O-])cc1)N/N=C\c1ccc([N+](=O)[O-])cc1
inactive: [26] 93 % of control | [23] 100 % of control | [24] 103 % of control | [25] 103 % of control

O=S(=O)(O)CCBr
inactive: [26] 108 % of control | [23] 96 % of control and 104 % of control | [4] 97 % of control | [24] 101 % of control and 108 % of control | [19] 96 % of control | [25] 104 % of control and 106 % of control | [21] 108 % of control

O=S(=O)(OCC1CO1)c1ccc(Br)cc1 (centres undefined)
inactive: dose: 100.0 mg/kg/injection, schedule: Q01DX008 (ip), vehicle: Klucel (hydroxypropylcellulose) (HPC) 103 % of control | dose: 200.0 mg/kg/injection, schedule: Q01DX008 (ip), vehicle: Klucel (hydroxypropylcellulose) (HPC) 92 % of control | dose: 400.0 mg/kg/injection, schedule: Q01DX008 (ip), vehicle: Klucel (hydroxypropylcellulose) (HPC) 108 % of control

CCOC(=O)/C(O)=C\c1cc[n+]([O-])nc1Cl
inactive: [1] 101 % of control | [2] 101 % of control | [3] 101 % of control
